Our source for the peroxide retention capability values is US8790640B1, “Treating inflammation with a binding system” (LiveLeaf, Inc., priority 2011, dated 2014).

The data set is described as follows: Hydrogen peroxide retention of extracts after desiccation and rehydration (colorimetric strips). Particulars: dissolved in 35% hydrogen peroxide, heated at 80° C., rehydrated. The data set is classed as physicochemical. On the procedure:
In order to compare the samples provided above, a test series was prepared in 30 ml tubes containing from 1 g˜10 g of the above extracts of Chinese Gall, Green Tea, Pomegranate and Resveratrol. Each was dissolved in 20 ml of 35% hydrogen peroxide then separate to two aliquots. One part was heated at 80° C. to a dark viscous semi-liquid and allowed to desiccate to a final volume of 5 ml. Each was rehydrated and serially diluted to detection range.

For `Oc1ccc(C=Cc2cc(O)cc(O)c2)cc1` [resveratrol, Resveratrol], the peroxide retention capability result is on record as “relatively less ability to form stable perhydrates”.
